Patent US12502391B2, “Multi-kinase inhibitors of VEGF and TGF beta and uses thereof” (AIVIVA BIOPHARMA, INC., priority 2018, dated 2025)
Several values for one entry are separate records, joined by “and”; a condition that tells them apart may be missing. Equal entries are not always repeated. Structures can show the parent of a compound that is named as a salt. Values belong to the molecule of their own block, whether it stands above or below them.

What was measured:
[1] = test system: rabbit ear hypertrophic scar; assay: Histopathology of rabbit ear wounds (neovascularization, fibrosis, re-epithelization); type: in vivo, New Zealand white rabbits; parameters: key to Total Score, Treated Mean: aggregate of neovascularization, fibrosis, re-epithelization grades; key to Neovascularization score, Treated Mean / Fibrosis/Collagen score, Treated Mean / Re-epithelization score, Treated Mean: five-step severity grade: minimal, mild, moderate, marked, severe; settings: rabbit ear wound, intradermal dosing of 1 wt. %
Experimental: In New Zealand white rabbits, maintained under a surgical plane of anesthesia, trauma stimulation of the skin on the ventral surface of both ears is initiated on Day 1. Trauma sites are evaluated on Days 8, 15, 22, 29, 36, and 43. On days 15 and 29, each site is dosed with test compounds (e.g., 1% w/w, 100 μl) by intradermal or intralesional injections.
At necropsy, each treatment site was harvested and preserved for hematoxylin and […] and Mason's trichrome stainings. Each lesion was examined histologically and graded for neovascularization, fibrosis and re-epithelization using a five-step/severity grading system (minimal, mild, moderate, marked, and severe). The average total score is an aggregation of these microscopic findings relating to an inflammatory response.

[2] = test system: TGF-β1 mRNA; assay: TGF-β1 mRNA expression (qRT-PCR) in Yucatan pig skin wound sites; type: in vivo, Yucatan minipigs; settings: Yucatan pig skin wound sites after treatments; for TGF-β1 mRNA Expression Fold Relative to Untreated Unwounded Control: individual animals 7369, 7370, 7371, duplicate sets 1 and 2, beta actin reference gene
Excerpt: (§1) In this experiment, multiple full-thickness excision wounds were made to the dorsum of Yucatan minipigs, and the wound sites were allowed to be re-epithelialized adequately. At four weeks post-wound, the wound sites had normal to pink vascularity and had pliability. Epidermal hyperplasia was observed, as expected for regenerative responses in the full-thickness wounds.
(§2) On Day 28 post-wound, a dose (e.g., 1%) of axitinib, nintedanib, riociguat, sorafenib, sunitinib, and/or lenvatinib was administered into the dermal tissue at or around the wound sites, once every two weeks on two occasions. One wound site was left untreated as the control for each pig. Please note that the particular parameters in this example are only for illustration. One skilled in the art would appreciate that the dosages, administration methods, treatment regimen, and the administration sites may be varied to achieve similar results.
In addition, total mRNA was isolated from skin biopsies of the treated wound sites and the untreated unwounded sites of the pigs. The mRNA samples were used to prepare cDNA and analyzed via qRT-PCR. The TGF-β1 expression levels were assessed using beta actin as a reference gene.

[3] = test system: full-thickness excision wounds; assay: Histology of full-thickness excision wounds in Yucatan minipigs (fibroplasia, neovascularization); type: in vivo; settings: Yucatan minipig wound sites after two doses, Day 59, scale 1 (minimal) to 5 (severe); for Neovascularization; dermis, average score: untreated 2.33; for Fibroplasia; dermis, average score: untreated 3.33
Excerpt: as §1, §2
On Day 59 post wound, the minipigs were sacrificed and dermal tissues were collected for qualitative and quantitative evaluation using hematoxylin and eosin, and Mason's Trichrome staining. Dermal fibroplasia was characterized by increased numbers of fibroblasts in the dermis suspended in variable amounts of collagen in wounds.

[4] = test system: benign prostate hyperplasia; assay: Testosterone and phenylephrine induced benign prostate hyperplasia in rats; type: in vivo, Wistar rats; parameters: key to epithelial hyperplasia score, dorsolateral prostate, representative image / epithelial hyperplasia score, ventral prostate, representative image: severity grade 0 = not present to 5 = severe
Experimental: BPH is a true hyperplastic process. Histologic studies have documented an increase in cell number. A study was conducted, therefore, to determine the effects of test compounds and vehicle on testosterone (TE) and phenylephrine (PE) induced benign prostate hyperplasia in rats. Male Wistar rats were induced with testosterone (2 mg/kg) plus phenylephrine (5 mg/kg) administered daily by subcutaneous injection on days 5 through 32. Vehicle or test compounds (all at 1% w/w), nintedanib, sunitinib, lenvatinib, and 0.5% doxazosin mesylate, were administered by intra-prostate injection (0.4 ml) in dorsolateral and ventral lobes on days 1 and 18. Animals were euthanized on day 32. Body weights were determined and prostate glands were harvested. The experimental design is outlined in Table 6.
At necropsy, the ventral and dorsolateral lobes of the prostate were separated and then cut into halves. The left halves were fixed in 10% neutral buffered formalin, sectioned, and stained with Hematoxylin and Eosin (H&E). Histological changes in these sections were scored. Epithelial hyperplasia was recognized as an increase in epithelial cells within normal-appearing gland profiles, primarily reflected by stratification of epithelial cells and increased presence of epithelial tufting and papillary projections. A severity grade of 0 (not present) through 5 (severe) was assigned to each sample.

[5] = test system: subconjunctival scarring; assay: Bleb survival after glaucoma filtration surgery in rabbit eyes; type: in vivo, rabbits
Experimental: In order to investigate the anti-scarring effect of topically applied test compounds following ocular surgeries, glaucoma filtration surgery was performed on rabbit eyes. Postoperative subconjunctival wound healing is a major cause of late bleb failure after glaucoma filtration surgery in humans. Select multikinase inhibitors were tested for effect on bleb survival over time. Inhibition of subconjunctival fibrosis following surgery will improve bleb survival. Vehicle was used as a negative control and pirfenidone was used a positive control.
A scleral tract was created in the left eyes superiorally by tunneling a beveled 22-gauge intravenous cannula through the sclera, beginning behind the limbus and continuing until the cannula is visible in the anterior chamber. The cannula was flushed with sodium heparin (1000 units) prior to placement. The cannula needle was withdrawn and the cannula advanced beyond the pupillary margin to prevent iris blockage of the tube. The cannula was trimmed approximately 2 mm and secured to the sclera using suture. Both the Tenon's and the conjunctiva were sutured with 9-0 Prolene. Six rabbits were used per group and the left eye of each rabbit underwent glaucoma filtration surgery. The treatment groups include vehicle control, pirfenidone (1%, w/v) as a positive control, sorafenib (0.3%, w/v), and lenvatinib (0.3%, w/v). Eyedrops (35 uL) were topically applied to the eyes following surgery three times day for 30 days. All animals were sacrificed on Day 30.
Bleb was monitored throughout the study. Bleb volumes were measured with the use of calibrated calipers. […] There were differences noted between groups at Day 7, and the majority of blebs were gone by Day 14 through Day 30 indicating bleb failure due to subconjunctival scarring. Results of the vehicle and pirfenidone groups were similar to those reported in the literature (Zhong H et al., Invest Ophthalmol Vis Sci, 52: 3136-3142, 2011).

[6] = test system: suture-induced ocular fibrosis; assay: Rabbit corneal suture-induced ocular fibrosis model; type: in vivo, rabbits; settings: topical three times daily, 10-day observation period
Excerpt: In order to investigate the anti-fibrotic effect of test compounds following wounding in the eye, a suture-induced ocular fibrosis model was used. Suture was placed intrastromally under a microscope in the cornea of rabbits. In each eye, one 9.0 silk suture was placed, in a vertical position, temporal to the corneal center and a second suture was placed nasal to the corneal center. Each suture had two stromal incursions approximately 2 mm from the limbus. Test compounds having certain spectrum of multikinase inhibition activities and/or vehicle were topically instilled (35 uL/eye) in the eyes three times daily for 10 days the day following surgery. The treatment groups include vehicle, nintedanib (0.3%, w/v), pirfenidone (1%, w/v), riociguat (0.3%, w/v), sorafenib (0.3%, w/v) and lenvatinib (0.3%, w/v). Six left eyes were used per treatment group.
The animals were sacrificed on Day 11 and the eyes enucleated and dissected for histopathological evaluation.

[7] = five-step severity grading (minimal to severe)
[8] = TE and PE induced rats, intra-prostate injection 0.4 ml on days 1 and 18 (1% w/w; doxazosin mesylate 0.5%), severity grade 0 (not present) through 5 (severe), induced vehicle score=4

SMILES: CNC(=O)c1ccccc1Sc1ccc2c(/C=C/c3ccccn3)n[nH]c2c1 [axitinib]
average total score of test wounds, fold lower than untreated wounds [1]: about 1.3 fold
Total Score, Treated Mean ([1]; aggregation of microscopic findings): 4.6
Fibrosis/Collagen score, Treated Mean [1, 7]: 3.3
Neovascularization score, Treated Mean [1, 7]: 1
Re-epithelization score, Treated Mean [1, 7]: 0.3
TGF-β1 mRNA Expression Fold Relative to Untreated Unwounded Control [2]: 0.89 fold and 0.68 fold (2×) and 0.64 fold and 0.37 fold and 0.78 fold
Neovascularization; dermis, average score [3]: (1.67)
Fibroplasia; dermis, average score [3]: (2.33)

SMILES: COc1cc2nc(N3CCN(C(=O)C4COc5ccccc5O4)CC3)nc(N)c2cc1OC (centres unmarked) [doxazosin, doxazosin mesylate]
epithelial hyperplasia score, dorsolateral prostate, representative image [4, 8]: 3
epithelial hyperplasia score, ventral prostate, representative image [4, 8]: 3
glandular hyperplasia compared to untreated TE/PE induced prostates ([4]; TE and PE induced rats, intra-prostate injection on days 1 and 18): demonstrated reduction of glandular hyperplasia

SMILES: Cc1ccc(=O)n(-c2ccccc2)c1 [pirfenidone]
bleb survival on Day 7 ([5]; eyedrops 35 uL three times a day, pirfenidone 1% w/v, lenvatinib 0.3% w/v, compared to vehicle and sorafenib groups): kept bleb survival on Day 7
bleb remaining / bleb failure on Day 30 ([5]; eyedrops three times a day for 30 days, 6 animals per group): demonstrated bleb failure

gross ocular observations: conjunctival congestion and swelling [6]: slightly more severe reaction
SMILES: COC(=O)N(C)c1c(N)nc(-c2nn(Cc3ccccc3F)c3ncccc23)nc1N [riociguat]
reduction of TGF-β1 mRNA expression levels at treated wounds [2]: most effective
TGF-β1 mRNA Expression Fold Relative to Untreated Unwounded Control [2]: 0.60 fold and 0.76 fold and 0.87 fold and 0.39 fold and 0.49 fold and 0.8 fold
Neovascularization; dermis, average score [3]: (2.67)
Fibroplasia; dermis, average score [3]: (2.67)

SMILES: CCN(CC)CCNC(=O)c1c(C)[nH]c(/C=C2\C(=O)Nc3ccc(F)cc32)c1C [sunitinib]
epithelial hyperplasia score, ventral prostate, representative image ([4]; 1 % strength): 3
epithelial hyperplasia score, dorsolateral prostate, representative image [4, 8]: 3
TGF-β1 mRNA Expression Fold Relative to Untreated Unwounded Control [2]: 0.50 fold and 0.53 fold and 0.48 fold and 0.45 fold and 0.64 fold and 1.86 fold
Neovascularization; dermis, average score [3]: (2.33)
Fibroplasia; dermis, average score [3]: (2.67)
